According to article PMC12488667, “Orodispersible films containing chestnut shell phenolics for buccal delivery: a preclinical approach for oral mucositis prevention” (Frontiers in Medical Technology, 2025):
Marks after values point to notes of the source that are not given here.

Key:
[1] = Ex vivo permeation, Franz cells; format: in vitro ADME, porcine
Experimental: Porcine buccal mucosa was used to evaluate the buccal permeation of the phenolic compounds in the extract and the CS-loaded OFs (n = 9). The porcine buccal mucosa was purchased in a local butcher shop, not requiring ethical approval. A Franz cell assembly (9 mm clear jacketed Franz cell with a flat ground joint, 5 ml receptor volume, and permeation area of 0.785 cm^2; PermeGear, Inc., USA) was used. This experiment followed the methodology described by Rodrigues et al. ([32]). In the Franz apparatus, the porcine buccal mucosa was positioned with the cheek side facing the donor chamber, which contained 500 µl (1,000 μg/ml) of the CS extract or the CS-loaded OFs (two square films (2 × 2 cm) with […] of thickness were dissolved in 4 ml of artificial saliva; donor concentration was normalized to ensure equivalence between the extract solution and the film formulation). The receptor chamber was filled with 5 ml PBS, maintained at 37°C, and stirred continuously at 150 rpm. The volume was maintained through the experiments.
(§1) The identification and quantification of the phenolic compounds present in the extract and the OFs, as well as the compounds that permeated from the OFs through in vitro and ex vivo assays, were conducted using an LC-ESI-LTQ-Orbitrap-HRMS equipment with an Accela chromatograph (Thermo Scientific, Hemel Hempstead, UK), a photodiode array detector, a quaternary pump, and a temperature-controlled autosampler coupled to a high-resolution LTQ Orbitrap Velos mass spectrometer (Thermo Scientific, Hemel Hempstead, UK) with an ESI source in negative mode ([33], [34]). The system was controlled using the Xcalibur v3.0 software (ThermoFisher Scientific, Hemel Hempstead, UK). Elution was performed on an Acquity™ UPLC® BEH C18 Column (2.1 × 100 mm, i.d., 1.7 µm particle size, Waters Corporation, Wexford, Ireland) maintained at 30°C.
(§2) Gradient elution was performed with water (A) and acetonitrile (B), both with 0.1% formic acid, with a flow rate and injection volume of 450 µl/min and 5 µl, respectively. The solvent gradient (v/v) of B [t (min), %B] was set as follows: (0, 0), (2, 0), (4, 30), (8, 100), (10, 100), (11, 0), and (14, 0). The samples were analyzed in the full scan mode at a resolving power of 30,000 and m/z 600. Data-dependent MS/MS events were acquired at a resolution of 15,000. Most intense ions were detected via the FTMS mode-triggered data-dependent acquisition mode. Ions that were not sufficiently intense for a data-dependent scan were explored in MSn mode. Precursors were fragmented by collision-induced dissociation using a C-trap with a normalized collision energy (35 V) and an activation time of 10 ms. […] Compounds whose theoretical [M–H]^− values exceeded the MS¹ acquisition range (m/z 100–600) were annotated based on characteristic MSⁿ fragment ions detected within the scan window.
Quantitative analysis was performed by using a validated chromatographic method ([38]).

[2] = tested on: TR146 cells; test: In vitro permeation, buccal model; format: in vitro ADME, human
Experimental: The in vitro permeability of the bioactive compounds present in OFs (n = 9) was determined using a co-culture model composed of TR146 ([31]). The extract and the CS-loaded OFs were added to the apical side of the model as a stock solution. […] The Transepithelial Electrical Resistance (TEER) of the model was evaluated before, during, and at the end of the permeability assay using an EVOM Epithelial Volthometer equipped with a chopstick electrode (World Precision Instruments, Sarasota, FL, USA).
as §1, §2

Quantification of permeated compounds ([1]; CS extract) | Quantification of permeated compounds ([1]; CS-loaded OFs) | Permeation (%) ([1]; from CS extract, 15 min) | Permeation (%) ([1]; from CS extract, 30 min) | Quantification of permeated compounds ([2]; CS extract) | Quantification of permeated compounds ([2]; CS-loaded OFs) | Permeation (%) ([2]; from CS extract, 15 min) | Permeation (%) ([2]; from CS extract, 30 min) | Permeation (%) ([2]; from CS extract, 45 min) | Permeation (%) ([2]; from CS extract, 60 min) | Permeation (%) ([2]; from CS extract, 90 min) | Permeation (%) ([2]; from CS extract, 120 min) | Permeation (%) ([2]; from CS extract, 180 min) | Permeation (%) ([2]; from CS extract, 240 min) | Compound | Permeation (%) ([2]; from CS-loaded OFs, 15 min) | Permeation (%) ([2]; from CS-loaded OFs, 45 min) | Permeation (%) ([2]; from CS-loaded OFs, 60 min) | Permeation (%) ([2]; from CS-loaded OFs, 90 min) | Permeation (%) ([2]; from CS-loaded OFs, 120 min) | Permeation (%) ([2]; from CS-loaded OFs, 180 min) | also measured
1.26 ± 0.01^b mg/ml | 0.38 ± 0.01^a mg/g film | 60.67 ± 0.21^b % | 70.72 ± 3.61^b % | 1.60 ± 0.03^a mg/ml | 0.82 ± 0.01^a mg/g film | 20.51 ± 1.62^b % | 14.86 ± 2.71^a % | 16.09 ± 1.85^a % | 14.96 ± 0.46^a % | 19.54 ± 0.94^b % | 20.71 ± 1.67^b % | 21.62 ± 0.61^b % | 23.76 ± 1.68^b % | O=C(O)CCC(=O)O [Succinic acid] | 44.20 ± 2.19^a % | 56.70 ± 1.23^b % | 57.45 ± 0.78^b % | 79.12 ± 4.41^c % | 88.23 ± 1.26^c % | 103.25 ± 1.42^d % | Permeation (%) ([1]; from CS-loaded OFs, 15 min): 14.00 ± 0.63^a %; Permeation (%) ([1]; from CS-loaded OFs, 30 min): 16.11 ± 0.72^a %; Permeation (%) ([2]; from CS-loaded OFs, 30 min): 64.44 ± 1.03^c %; Permeation (%) ([2]; from CS-loaded OFs, 240 min): 100.86 ± 1.75^d %; Permeation (%) ([2]; from CS-loaded OFs, 240 min, listed as succinic acid): 100.86%
1.18 ± 0.1^b mg/ml | 0.09 ± 0.02^a mg/g film | 5.91 ± 0.06^a % | 4.76 ± 0.02^a % | 1.52 ± 0.02^a mg/ml | 0.36 ± 0.03^a mg/g film | 13.57 ± 0.05^a % | 13.06 ± 0.03^a % | 14.09 ± 0.01^a % | 17.29 ± 0.01^a % | 16.17 ± 0.06^a % | 29.12 ± 0.19^b % | 16.86 ± 0.23^a % | 24.23 ± 0.45^b % | O=C(O)c1cccc(O)c1 [3-Hydroxybenzoic acid] | – | – | – | – | – | – | Permeation (%) ([1]; from CS-loaded OFs, 15 min): 45.86 ± 0.03^b %; Permeation (%) ([1]; from CS-loaded OFs, 30 min): 105.28 ± 3.37^b %
0.97 ± 0.03^b mg/ml | 0.13 ± 0.01^a mg/g film | 19.05 ± 1.63^a % | 19.06 ± 0.61^a % | 0.53 ± 0.03^a mg/ml | 0.41 ± 0.02^a mg/g film | 39.32 ± 0.96^b % | 43.86 ± 1.62^b % | 42.03 ± 0.79^b % | 38.29 ± 0.86^b % | 37.52 ± 0.97^b % | 25.84 ± 1.03^a % | 40.40 ± 0.82^c % | 32.88 ± 0.87^b % | O=C(O)c1ccc(O)c(O)c1 [Protocatechuic acid] | 89.42 ± 3.08^b % | 85.88 ± 2.01^b % | 94.08 ± 3.56^b % | 96.88 ± 1.43^b % | 106.06 ± 0.78^b % | 84.76 ± 2.51^b % | Permeation (%) ([2]; from CS-loaded OFs, 240 min): 75.80 ± 0.91^a %; Permeation (%) ([2]; from CS-loaded OFs, 240 min, listed as protocatechuic acid): 75.80%

Compound | Quantification of permeated compounds ([1]; CS extract) | Quantification of permeated compounds ([1]; CS-loaded OFs) | Permeation (%) ([1]; from CS extract, 15 min) | Permeation (%) ([1]; from CS extract, 30 min) | Quantification of permeated compounds ([2]; CS extract) | Quantification of permeated compounds ([2]; CS-loaded OFs) | Permeation (%) ([2]; from CS extract, 15 min) | Permeation (%) ([2]; from CS extract, 30 min) | Permeation (%) ([2]; from CS extract, 45 min) | Permeation (%) ([2]; from CS extract, 60 min) | Permeation (%) ([2]; from CS extract, 90 min) | Permeation (%) ([2]; from CS extract, 120 min) | Permeation (%) ([2]; from CS extract, 180 min) | Permeation (%) ([2]; from CS extract, 240 min) | Permeation (%) ([2]; from CS-loaded OFs, 15 min) | Permeation (%) ([2]; from CS-loaded OFs, 45 min) | Permeation (%) ([2]; from CS-loaded OFs, 60 min) | Permeation (%) ([2]; from CS-loaded OFs, 90 min) | Permeation (%) ([2]; from CS-loaded OFs, 120 min) | Permeation (%) ([2]; from CS-loaded OFs, 180 min) | also measured
O=C(O)C[C@H](C(=O)O)[C@@H](O)C(=O)O [Isocitric acid] | 2.20 ± 0.05^a mg/ml | 2.21 ± 0.16^a mg/g film | 15.13 ± 0.29^a % | 13.91 ± 1.51^a % | 222.23 ± 6.57^a mg/ml | 306.36 ± 13.65^b mg/g film | 0.04 ± 0.01^a % | 0.12 ± 0.03^a % | 0.15 ± 0.01^a % | 0.15 ± 0.01^a % | 0.24 ± 0.03^a % | 0.33 ± 0.02^a^,^b % | 0.54 ± 0.04^a^,^b % | 0.70 ± 0.01^b % | 0.15 ± 0.001^a % | 0.50 ± 0.06^a % | 0.62 ± 0.02^a % | 1.04 ± 0.01^b % | 1.40 ± 0.04^b % | 2.77 ± 0.01^b % | Permeation (%) ([1]; from CS-loaded OFs, 15 min): 19.05 ± 1.12^a %; Permeation (%) ([1]; from CS-loaded OFs, 30 min): 19.02 ± 0.90^a %; Permeation (%) ([2]; from CS-loaded OFs, 30 min): 0.29 ± 0.05^a %; Permeation (%) ([2]; from CS-loaded OFs, 240 min): 3.38 ± 0.06^b %
COc1cc(CC(=O)O)ccc1O [Homovanillic acid] | 2.03 ± 0.03^a mg/ml | 1.67 ± 0.03^a mg/g film | 99.88 ± 2.79^a % | 100.53 ± 3.72^a % | 0.58 ± 0.03^a mg/ml | 0.41 ± 0.01^a mg/g film | 93.51 ± 2.52^b % | 92.34 ± 1.55^b % | 92.13 ± 1.08^b % | 93.10 ± 0.94^b % | 94.47 ± 3.00^b % | 90.93 ± 2.74^b % | 91.20 ± 1.73^b % | 87.20 ± 2.06^a % | 106.01 ± 1.46^a % | 105.41 ± 0.99^a % | 103.62 ± 2.72^a % | 105.25 ± 2.83^a % | 109.09 ± 1.97^a % | 106.07 ± 2.67^a % | Permeation (%) ([2]; from CS extract, 240 min, listed as homovanillic acid): 87.20%; Permeation (%) ([2]; from CS-loaded OFs, 30 min): 104.89 ± 1.08^a %; Permeation (%) ([2]; from CS-loaded OFs, 240 min): 110.05 ± 3.61^a %; Permeation (%) ([2]; from CS-loaded OFs, 240 min, listed as homovanillic acid): 110.05%
